The source of these data is publication PMC6501643, “Crystal structure of human RIOK2 bound to a specific inhibitor” (Open Biology, 2019).

In this experiment the target is T1, RIO kinase 2 (RIOK2) (Homo sapiens, UniProt Q9BVS4).
T1 construct: residues 1–329
As to the kind of experiment: co-crystal structure ([…] Å) and ITC. Type of experiment: binding.

T1 sequence (Q9BVS4 1-329): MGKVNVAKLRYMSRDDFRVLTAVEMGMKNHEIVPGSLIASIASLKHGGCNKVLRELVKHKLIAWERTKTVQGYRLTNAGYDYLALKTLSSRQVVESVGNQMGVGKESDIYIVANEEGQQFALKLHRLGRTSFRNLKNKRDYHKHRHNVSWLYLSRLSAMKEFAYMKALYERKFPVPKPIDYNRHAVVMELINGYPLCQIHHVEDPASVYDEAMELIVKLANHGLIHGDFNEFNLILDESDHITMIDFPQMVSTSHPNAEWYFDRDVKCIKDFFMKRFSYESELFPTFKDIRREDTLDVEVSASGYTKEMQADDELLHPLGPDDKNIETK

One may read the Kd as the constant that tells how readily two partners part at equilibrium. `O=C(Cc1ccc2ccccc2c1)Nc1ccccn1` [compound 9]: the Kd was 393 nM.
